According to patent publication US8835503B2, “Pharmaceutical composition containing GLUR2-lacking AMPAR antagonist for preventing or treating psychiatric illnesses” (SNU R&DB Foundation, priority 2009, dated 2014):

System: fear memory renewal
Test: Blocking of fear memory renewal by NASPM administered into the amygdala (freezing response)
Assay type: in vivo, rat
Details: for fear responses (freezing) in memory renewal test: 15 minutes before measuring fear memory, vs control group
Experimental: For fear memory learning, the rats were exposed to sound stimuli of a single tone (2.8 kHz, 85 dB) for 30 seconds, and subjected to an electric foot shock (1.0 mA) for 1 second at the end of said 30-second period. The sound stimuli and the electric foot shock were repeated 3 times at 100 second intervals. 1 minute later after the last electric foot shock, the rats were returned to their home cages. On day 2, fear memory learning was performed in the same way.
From day 3, memory extinction was performed in a context different from that of the fear memory learning On day 4, the rats were exposed to only sound stimuli 20 times at 100 second intervals without an electric foot shock. On days 5 and 6, the sound stimuli were repeated 15 times at 100 second intervals.
On day 7, memory renewal test was performed. The rats experienced memory extinction were placed in the place of the fear memory learning for 10 minutes, and then, memory renewal was induced by exposing the rats to sound stimuli for 30 seconds.
The experiment was performed using the rats which experienced fear memory learning, memory extinction and memory renewal in accordance with the method described in Example 1-1. White rats, 8-9 weeks old (Sprague-Dawley Rat, Male; Samtako, Korea), were used.
The rats were anesthetized by intraperitoneal injection of pentobarbital sodium (50 mg/kg; Entobal, Hanlim Pharma, Co., Ltd., Korea). After fully anesthetized, the rats were mounted on a stereotaxic apparatus (David Kopf Instruments, Tujunga, Calif., USA), and then, stainless steel cannulas of 26 gauge (Model C315G, Plastic Products, Roanoke, Va., USA) were implanted bilaterally into the amygdala (AP; […], ML; +/−5.15, DV; −7.0 mm) by operation. A 32 gauge dummy cannula was inserted into each cannula to prevent clogging. After a recovery period of at least 1 week, the rats were subjected to fear memory learning, memory extinction and memory renewal tests. […]
Conditioned freezing was defined as immobility except for respiratory movements, and was quantified by trained observers that were blind to the experimental groups.

With N-naphthylspermine [NASPM] the “fear responses (freezing) in memory renewal test” value (10 μg NASPM into the amygdala) was “insignificant effect”, the “fear responses (freezing) in memory renewal test” value (40 μg NASPM into the amygdala) was “remarkably less fear responses” and the “blocking of fear memory renewal” value (administered in the amygdala, 10 μg and 40 μg) was “blocks the fear memory renewal in a concentration-dependent manner”.
